Measured values: article PMC9122626 (2020)

Tested on: human telomeric G4 DNA, dAGGG(TTAGGG)3 (DNA, G4) AGGGTTAGGGTTAGGGTTAGGG
Assay: CD melting (295 nm)
Settings: Na+ 100 mM; peptide concentration not given

SMILES: N[C@@H](Cc1ccc(O)cc1)C(=O)N[C@@H](CCC(=O)N[C@@H](CCC(=O)O)C(=O)O)C(=O)N[C@@H](CCC(=O)O)C(=O)O (racemic)
- ΔTm: ~ 3 °C
